Experimental data published in patent US7282203B2, “Use of NOTCH pathway interfering agents for treatment of plasma cell disorders” (Health Research, Inc., priority 2003, dated 2007).

What was measured:
OPM2 MM cells = test: MTT assay, percent of living OPM2 MM cells cultured on fibroblast cells; type: cell-based; details: for IC50: Homo sapiens, OPM-2
Description: FIG. 11A-D. IC50 for OPM2 cells (MM) incubated with doxorubicin (DOX) alone or in the presence of an anti-NOTCH or anti-JAG2 antibody. OPM2 (MM) cells were cultured on fibroblasts (MRC5) In FIG. 11 A, IC50 data is shown for cells incubated with different concentrations of DOX. In FIG. 11B, IC50 data is shown for OPM2 cells on fibroblast with […] DOX, an isotype antibody or an anti-NOTCH-EC antibody. In FIG. 11C, data is shown for the effect of the anti-NOTCH antibody alone, without DOX. In FIG. 11D, IC50 values are shown for OMP2 cells incubated alone, in the presence of DOX or in the presence of DOX with an anti-JAG2 antibody (M8).
To illustrate this embodiment, the anti-NOTCH-EC antibody or the anti-JAG2 antibody was used in combination with doxorubicin (DOX). The OPM2 MM cells were cultured for 48 hours on fibroblast cells with different concentrations of DOX. […] However, when increasing concentrations of the anti-JAG2 were added, the percent of living cells was seen to decrease.

multiple myeloma = details: cited from earlier work
RPMI8226 cell line = test: Cytokine secretion on incubation of RPMI8226 cell line with JAG2 binding peptide; type: cell-based; details: RPMI8226 MM cell line
Description: (§1) FIGS. 8A-C. Induction of the secretion of IL-6 (FIG. 8A); VEGF (FIG. 8B) and IGF-1 (FIG. 8C) by incubation of the MRC5 and RPMI8226 cell lines with a JAG2 binding peptide CDENYYSATCNKFCRPRND (SEQ ID NO:1) at the indicated concentrations.
(§2) In order to ascertain the involvement of JAG2 in the induction of the secretion of IL-6, VEGF and IGF-1, we incubated the MRC5 cell line with different concentrations of JAG2 peptide. This peptide corresponds to the binding region of JAG2 that activates NOTCH upon interaction. We also incubated the RPMI8226 cell line with this same peptide.

MRC5 cell line = test: Cytokine secretion on incubation of MRC5 cell line with JAG2 binding peptide; type: cell-based; details: MRC5, different concentrations of peptide
Description: as §1, §2

## COc1cccc2c1C(=O)c1c(O)c3c(c(O)c1C2=O)C[C@@](O)(C(=O)CO)C[C@@H]3O[C@H]1C[C@H](N)[C@H](O)[C@H](C)O1 [DOX, doxorubicin]
OPM2 MM cells; DOX alone (FIG. 11D)
  percent of living cells: no effect
OPM2 MM cells; DOX alone, 48 hours on fibroblast cells
  IC50: ~1000 nM
OPM2 MM cells; DOX in the presence of 40 μg (27 μg/ml) anti-NOTCH EC antibody
  IC50: 100 nM
OPM2 MM cells; with 40 μg anti-NOTCH EC antibody versus DOX alone
  reduction of DOX concentration at IC50: ~10 times

## N[C@@H](Cc1ccc(N(CCCl)CCCl)cc1)C(=O)O [Melphalan]
Multiple myeloma; conventional chemotherapy, mainly Melphalan
  patients reaching complete remission (CR): 14%

## CC(C)C[C@H](NC(=O)[C@H](Cc1ccccc1)NC(=O)c1cnccn1)B(O)O [PS341]
Multiple myeloma; available trials
  CR/PR: 47%
  patients showing a >75% reduction of paraprotein: 30%

## NH2-CDENYYSATCNKFCRPRND-OH (H-CDENYYSATCNKFCRPRND-OH; cysteine pairing not given here) [JAG2 binding peptide]
RPMI8226 cell line
  secretion of IGF-1: no stimulation
  secretion of IL-6: no stimulation
  secretion of VEGF: no stimulation
MRC5 cell line
  secretion of IGF-1: activated
  secretion of IL-6: activated
  secretion of VEGF: activated
